Consider one substance from patent EP2980218A1, “Aptamer thrombin complex for use as an antidote to direct acting thrombin inhibitors” (Rheinische Friedrich-Wilhelms-Universität Bonn, priority 2014, dated 2016).

Series [1] is described as follows: anticoagulation monitoring (anti-FIIa activity) after oral dabigatran in mice. In kind it is in vivo. Particulars: oral administration of 1 mg/g body weight dabigatran. The protocol:
The in-vivo antidote properties of aptathrombin were studied in a mouse model after oral administration of 1 mg/g body weight dabigatran.

For series [2] the following is noted: humans, after dabigatran administration; cited from earlier work.

On to “N-[2-(4-Aminoiminomethylphenylamino)-1-methyl-1H-benzimidazol-5-ylcarbonyl]-N-(2-pyridyl)-beta-alanine [dabigatran]”, for which the “time to peak level of anti-FIIa activities” value in series [1] is 3 to 4 h. For the same substance, in series [2], the “plasma concentration, upper limit of the peak level” value was 280 ng/mL and the “time at which peak level is reached” value was 2 to 4 h.
